Measured values taken from the NIST ThermoML archive (doi:10.1016/j.jct.2007.07.002).

Conditions: Gas, double Helmholtz acoustic resonator

[C-]#[O+] [carbon monoxide]
Conditions | kinematic viscosity [m2/s] | speed of sound [m/s]
225 K, 250.04 kPa | 3.74e-06 | 305.59
225 K, 371.9 kPa | 2.5e-06 | 305.42
225 K, 499.99 kPa | 1.86e-06 | 305.4
225 K, 560.56 kPa | 1.68e-06 | 305.34
225 K, 743.07 kPa | 1.25e-06 | 305.24
225 K, 750 kPa | 1.23e-06 | 305.26
225 K, 934.61 kPa | 1e-06 | 305.14
225 K, 1000 kPa | 9.4e-07 | 305.15
225 K, 1141.5 kPa | 8.17e-07 | 305.06
225 K, 1250 kPa | 7.36e-07 | 305.04
225 K, 1345.6 kPa | 6.95e-07 | 304.99
225 K, 1500 kPa | 6.19e-07 | 304.99
225 K, 1581.5 kPa | 5.88e-07 | 304.94
225 K, 1750 kPa | 5.32e-07 | 304.95
225 K, 1787.1 kPa | 5.2e-07 | 304.91
225 K, 2000 kPa | 4.66e-07 | 304.94
225 K, 2016.1 kPa | 4.63e-07 | 304.91
225 K, 2264 kPa | 4.14e-07 | 304.94
225 K, 2454.7 kPa | 3.79e-07 | 304.96
250 K, 221.65 kPa | 5.37e-06 | 322.56
250 K, 401.55 kPa | 2.88e-06 | 322.4
250 K, 587.83 kPa | 1.95e-06 | 322.43
250 K, 791.25 kPa | 1.45e-06 | 322.51
250 K, 982.55 kPa | 1.16e-06 | 322.58
250 K, 1169.1 kPa | 9.78e-07 | 322.67
250 K, 1392.3 kPa | 8.19e-07 | 322.79
250 K, 1587.8 kPa | 7.19e-07 | 322.93
250 K, 1808.2 kPa | 6.28e-07 | 323.08
250 K, 2050.1 kPa | 5.56e-07 | 323.27
250 K, 2241.5 kPa | 5.08e-07 | 323.44
275 K, 250.64 kPa | 5.04e-06 | 338.34
275 K, 286.53 kPa | 4.39e-06 | 338.19
275 K, 465.9 kPa | 2.83e-06 | 338.32
275 K, 500.41 kPa | 2.7e-06 | 338.48
275 K, 652.16 kPa | 2.07e-06 | 338.54
275 K, 750 kPa | 1.84e-06 | 338.76
275 K, 832.04 kPa | 1.63e-06 | 338.75
275 K, 1000 kPa | 1.37e-06 | 338.99
275 K, 1045.4 kPa | 1.3e-06 | 338.99
275 K, 1250 kPa | 1.11e-06 | 339.26
275 K, 1252.2 kPa | 1.09e-06 | 339.22
275 K, 1443.1 kPa | 9.45e-07 | 339.46
275 K, 1500 kPa | 9.2e-07 | 339.57
275 K, 1675 kPa | 8.12e-07 | 339.74
275 K, 1750 kPa | 7.89e-07 | 339.89
275 K, 1882.7 kPa | 7.23e-07 | 340.02
275 K, 2000 kPa | 6.96e-07 | 340.23
275 K, 2150.8 kPa | 6.33e-07 | 340.38
275 K, 2364.7 kPa | 5.79e-07 | 340.69
300 K, 252.56 kPa | 6.71e-06 | 353.44
300 K, 501.19 kPa | 3.25e-06 | 353.74
300 K, 709.53 kPa | 2.28e-06 | 354
300 K, 1000 kPa | 1.64e-06 | 354.52
300 K, 1178.1 kPa | 1.39e-06 | 354.78
300 K, 1250 kPa | 1.31e-06 | 354.91
300 K, 1374 kPa | 1.2e-06 | 355.09
300 K, 1481.5 kPa | 1.12e-06 | 355.27
300 K, 1500 kPa | 1.1e-06 | 355.32
300 K, 1602.1 kPa | 1.03e-06 | 355.46
300 K, 1730.3 kPa | 9.55e-07 | 355.67
300 K, 1750 kPa | 9.47e-07 | 355.74
300 K, 1868 kPa | 8.89e-07 | 355.91
300 K, 2000 kPa | 8.32e-07 | 356.15
300 K, 2005.3 kPa | 8.27e-07 | 356.15
325 K, 303.08 kPa | 5.93e-06 | 367.79
325 K, 515.56 kPa | 3.49e-06 | 368.11
325 K, 732.01 kPa | 2.49e-06 | 368.52
325 K, 943.23 kPa | 1.94e-06 | 368.91
325 K, 1169.7 kPa | 1.57e-06 | 369.33
325 K, 1401.2 kPa | 1.31e-06 | 369.77
325 K, 1633.9 kPa | 1.12e-06 | 370.22
325 K, 1908.7 kPa | 9.62e-07 | 370.77
325 K, 2129.6 kPa | 8.63e-07 | 371.22
325 K, 2413.1 kPa | 7.66e-07 | 371.82
350 K, 342.4 kPa | 6.04e-06 | 381.63
350 K, 544.1 kPa | 3.84e-06 | 382.06
350 K, 775.52 kPa | 2.69e-06 | 382.52
350 K, 1007.1 kPa | 2.06e-06 | 382.99
350 K, 1245.1 kPa | 1.68e-06 | 383.51
350 K, 1461.5 kPa | 1.43e-06 | 383.96
350 K, 1735.1 kPa | 1.21e-06 | 384.56
350 K, 1995.6 kPa | 1.05e-06 | 385.14
350 K, 2208.2 kPa | 9.51e-07 | 385.62
350 K, 2464.2 kPa | 8.55e-07 | 386.21
375 K, 260.28 kPa | 8.45e-06 | 394.36
375 K, 460.71 kPa | 4.99e-06 | 394.79
375 K, 672.43 kPa | 3.42e-06 | 395.31
375 K, 885.97 kPa | 2.63e-06 | 395.84
375 K, 1102.9 kPa | 2.13e-06 | 396.34
375 K, 1302.3 kPa | 1.81e-06 | 396.82
375 K, 1537.5 kPa | 1.53e-06 | 397.37
375 K, 1815.6 kPa | 1.3e-06 | 398.04
375 K, 2026.2 kPa | 1.16e-06 | 398.56
375 K, 2250.6 kPa | 1.05e-06 | 399.12
375 K, 2518.2 kPa | 9.4e-07 | 399.8
